Reference: PubChem BioAssay AID212 (DTP/NCI, 2004)
Several values for one entry are separate records, joined by “and”; a condition that tells them apart may be missing. Equal entries are not always repeated. Records with an inconclusive call do not appear. Where a SMILES comes first, the peptide text is derived from it. The star is where a group is joined. Trt = c1ccc(C(c2ccccc2)(c2ccccc2)*)cc1; Cbz = O=C(OCc1ccccc1)*; Bn = c1ccc(C*)cc1; βAla = NCCC(=O)O

System: BDF1 mice, colon carcinoma 38 sc, T/C %
Test: NCI In Vivo Anticancer Drug Screen. Data for tumor model Colon Carcinoma 38 (subcutaneous) in B6D2F1 (BDF1) mice
Details: endpoint: median tumor weight (est.), higher = larger tumour
How it was run: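 Ratio of survival or tumor size, compound-treated animals relative to vehicle controls, in tumor-bearing mice.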

[1] = dose: 25.0 mg/kg/injection, schedule: Q07DX002 (ip), vehicle: saline with Tween-80
[2] = dose: 100.0 mg/kg/injection, schedule: Q07DX002 (ip), vehicle: saline with Tween-80
[3] = dose: 400.0 mg/kg/injection, schedule: Q07DX002 (ip), vehicle: saline with Tween-80

## CCN(CC)CCCNc1nccc2c(C)c3[nH]c4ccncc4c3cc12
dose: 0.75 mg/kg/injection, schedule: Q07DX002 (ip), vehicle: acid diluted with saline
  T/C: 76 % of control
dose: 0.75 mg/kg/injection, schedule: Q07DX002 (ip), vehicle: other
  T/C: 120 % of control
dose: 1.25 mg/kg/injection, schedule: Q07DX002 (ip), vehicle: other
  T/C: 106 % of control
dose: 1.5 mg/kg/injection, schedule: Q07DX002 (ip), vehicle: acid diluted with saline
  T/C: 100 % of control
dose: 1.5 mg/kg/injection, schedule: Q07DX002 (ip), vehicle: other
  T/C: 108 % of control
dose: 3.0 mg/kg/injection, schedule: Q07DX002 (ip), vehicle: acid diluted with saline
  T/C: 46 % of control
dose: 3.0 mg/kg/injection, schedule: Q07DX002 (ip), vehicle: other
  T/C: 123 % of control
dose: 6.0 mg/kg/injection, schedule: Q07DX002 (ip), vehicle: acid diluted with saline
  T/C: 69 % of control
dose: 6.0 mg/kg/injection, schedule: Q07DX002 (ip), vehicle: other
  T/C: 66 % of control
dose: 12.0 mg/kg/injection, schedule: Q07DX002 (ip), vehicle: acid diluted with saline
  T/C: 51 % of control
dose: 12.0 mg/kg/injection, schedule: Q07DX002 (ip), vehicle: other
  T/C: 26 % of control
dose: 20.0 mg/kg/injection, schedule: Q07DX002 (ip), vehicle: other
  T/C: 41 % of control

## CSc1ncnc2c1ncn2C1OC(CO)C(O)C1O (stereo not drawn)
dose: 6.25 mg/kg/injection, schedule: Q07DX002 (ip), vehicle: saline + alcohol
  T/C: 91 % of control
dose: 12.5 mg/kg/injection, schedule: Q07DX002 (ip), vehicle: saline + alcohol
  T/C: 83 % of control
dose: 25.0 mg/kg/injection, schedule: Q07DX002 (ip), vehicle: saline + alcohol
  T/C: 150 % of control
dose: 100.0 mg/kg/injection, schedule: Q07DX002 (ip), vehicle: saline + alcohol
  T/C: 25 % of control

## N#CCCSC(=S)C1CCCC1=N (stereo not drawn)
[1]
  T/C: 107 % of control
dose: 50.0 mg/kg/injection, schedule: Q07DX002 (ip), vehicle: saline with Tween-80
  T/C: 95 % of control
[2]
  T/C: 90 % of control
dose: 200.0 mg/kg/injection, schedule: Q07DX002 (ip), vehicle: saline with Tween-80
  T/C: 99 % of control
[3]
  T/C: 71 % of control
dose: 800.0 mg/kg/injection, schedule: Q07DX002 (ip), vehicle: saline with Tween-80
  T/C: 86 % of control

## O=C(O)c1ccc(C(=O)O)c(C(=O)O)c1.[NH-]C1CCCCC1[NH-].[Pt+2]
dose: 1.56 mg/kg/injection, schedule: Q07DX002 (ip), vehicle: sodium bicarbonate
  T/C: 110 % of control
dose: 3.12 mg/kg/injection, schedule: Q07DX002 (ip), vehicle: sodium bicarbonate
  T/C: 124 % of control
dose: 3.12 mg/kg/injection, schedule: Q07DX003 (ip), vehicle: sodium bicarbonate
  T/C: 20 % of control
dose: 6.25 mg/kg/injection, schedule: Q07DX002 (ip), vehicle: sodium bicarbonate
  T/C: 70 % of control
dose: 6.25 mg/kg/injection, schedule: Q07DX003 (ip), vehicle: sodium bicarbonate
  T/C: 24 % of control
dose: 12.5 mg/kg/injection, schedule: Q07DX003 (ip), vehicle: sodium bicarbonate
  T/C: 10 % of control
dose: 25.0 mg/kg/injection, schedule: Q07DX002 (ip), vehicle: sodium bicarbonate
  T/C: 20 % of control and 36 % of control and 44 % of control
dose: 50.0 mg/kg/injection, schedule: Q07DX002 (ip), vehicle: sodium bicarbonate
  T/C: 33 % of control

## CCOC(=O)c1ccc(NC(=O)Nc2nncs2)cc1
dose: 12.5 mg/kg/injection, schedule: Q07DX002 (ip), vehicle: distilled water + Tween-80
  T/C: 194 % of control
dose: 25.0 mg/kg/injection, schedule: Q07DX002 (ip), vehicle: distilled water + Tween-80
  T/C: 90 % of control
dose: 50.0 mg/kg/injection, schedule: Q07DX002 (ip), vehicle: distilled water + Tween-80
  T/C: 94 % of control

## CN1N=C(N)c2cn(C3OC(COP(=O)(O)O)C(O)C3O)c3ncnc1c23 (stereo not drawn)
dose: 6.25 mg/kg/injection, schedule: Q07DX002 (ip), vehicle: water
  T/C: 84 % of control
dose: 25.0 mg/kg/injection, schedule: Q07DX002 (ip), vehicle: water
  T/C: 68 % of control and 91 % of control
dose: 100.0 mg/kg/injection, schedule: Q07DX002 (ip), vehicle: water
  T/C: 73 % of control

## C=C1C(=O)OC2CC1CCC1(C)OC1CCC(C)=CCCC2(C)O (stereo not drawn)
dose: 3.75 mg/kg/injection, schedule: Q07DX002 (ip), vehicle: Klucel (hydroxypropylcellulose) (HPC)
  T/C: 155 % of control
dose: 7.5 mg/kg/injection, schedule: Q07DX002 (ip), vehicle: Klucel (hydroxypropylcellulose) (HPC)
  T/C: 155 % of control
dose: 30.0 mg/kg/injection, schedule: Q07DX002 (ip), vehicle: Klucel (hydroxypropylcellulose) (HPC)
  T/C: 99 % of control
dose: 60.0 mg/kg/injection, schedule: Q07DX002 (ip), vehicle: Klucel (hydroxypropylcellulose) (HPC)
  T/C: 123 % of control

## COC(=O)C(CSC(c1ccccc1)(c1ccccc1)c1ccccc1)NC(=O)C(CSCc1ccccc1)NC(=O)CCNC(=O)OCc1ccccc1 (stereo not drawn) ({Cbz-βAla}-Cys(Bn)-Cys(Trt)-OMe; configuration not given here)
dose: 25.0 mg/kg/injection, schedule: Q07DX002 (ip), vehicle: Klucel (hydroxypropylcellulose) (HPC)
  T/C: 106 % of control
dose: 50.0 mg/kg/injection, schedule: Q07DX002 (ip), vehicle: Klucel (hydroxypropylcellulose) (HPC)
  T/C: 109 % of control
dose: 100.0 mg/kg/injection, schedule: Q07DX002 (ip), vehicle: Klucel (hydroxypropylcellulose) (HPC)
  T/C: 96 % of control
dose: 200.0 mg/kg/injection, schedule: Q07DX002 (ip), vehicle: Klucel (hydroxypropylcellulose) (HPC)
  T/C: 87 % of control
dose: 400.0 mg/kg/injection, schedule: Q07DX002 (ip), vehicle: Klucel (hydroxypropylcellulose) (HPC)
  T/C: 123 % of control

## CN(C)CCC(=O)C(=Cc1ccc(O)cc1)C(=O)CCN(C)C
dose: 25.0 mg/kg/injection, schedule: Q07DX002 (ip), vehicle: saline
  T/C: 97 % of control
dose: 50.0 mg/kg/injection, schedule: Q07DX002 (ip), vehicle: saline
  T/C: 112 % of control
dose: 100.0 mg/kg/injection, schedule: Q07DX002 (ip), vehicle: saline
  T/C: 77 % of control

## CCCCCn1c(C)cc(/C=C\c2ccc3cc(C)ccc3[n+]2C)c1C
dose: 0.62 mg/kg/injection, schedule: Q07DX002 (ip), vehicle: Klucel (hydroxypropylcellulose) (HPC)
  T/C: 85 % of control and 86 % of control
dose: 1.25 mg/kg/injection, schedule: Q07DX002 (ip), vehicle: Klucel (hydroxypropylcellulose) (HPC)
  T/C: 104 % of control
dose: 37.5 micrograms/kg/injection, schedule: Q07DX002 (ip), vehicle: Klucel (hydroxypropylcellulose) (HPC)
  T/C: 84 % of control
dose: 75.0 micrograms/kg/injection, schedule: Q07DX002 (ip), vehicle: Klucel (hydroxypropylcellulose) (HPC)
  T/C: 186 % of control
dose: 150.0 micrograms/kg/injection, schedule: Q07DX002 (ip), vehicle: Klucel (hydroxypropylcellulose) (HPC)
  T/C: 162 % of control
dose: 600.0 micrograms/kg/injection, schedule: Q07DX002 (ip), vehicle: Klucel (hydroxypropylcellulose) (HPC)
  T/C: 188 % of control

## N#CC(=C1C=CC(=NO)C=C1)c1ccc(Cl)cc1
dose: 12.5 mg/kg/injection, schedule: Q07DX002 (ip), vehicle: saline with Tween-80
  T/C: 72 % of control
[1]
  T/C: 100 % of control
[2]
  T/C: 103 % of control
[3]
  T/C: 46 % of control

## O=C1C=C[C@H](O)[C@@]2(CO)O[C@@H]12
dose: 0.62 mg/kg/injection, schedule: Q07DX002 (ip), vehicle: saline with Tween-80
  T/C: 104 % of control
dose: 1.25 mg/kg/injection, schedule: Q07DX002 (ip), vehicle: saline with Tween-80
  T/C: 116 % of control
dose: 2.5 mg/kg/injection, schedule: Q07DX002 (ip), vehicle: saline with Tween-80
  T/C: 69 % of control
dose: 5.0 mg/kg/injection, schedule: Q07DX002 (ip), vehicle: saline with Tween-80
  T/C: 79 % of control
dose: 10.0 mg/kg/injection, schedule: Q07DX002 (ip), vehicle: saline with Tween-80
  T/C: 97 % of control

## CN(C)c1nc(N(C)C)nc(N(C)C)n1
dose: 12.5 mg/kg/injection, schedule: Q07DX003 (ip), vehicle: saline with Tween-80
  T/C: 68 % of control
dose: 25.0 mg/kg/injection, schedule: Q07DX003 (ip), vehicle: saline with Tween-80
  T/C: 91 % of control
dose: 50.0 mg/kg/injection, schedule: Q07DX003 (ip), vehicle: saline with Tween-80
  T/C: 112 % of control
dose: 100.0 mg/kg/injection, schedule: Q07DX003 (ip), vehicle: saline with Tween-80
  T/C: 66 % of control
dose: 200.0 mg/kg/injection, schedule: Q07DX003 (ip), vehicle: saline with Tween-80
  T/C: 65 % of control

## Cc1c2ccccc2c(C)c2c1cc(C(=O)O)c1ccccc12
dose: 62.5 mg/kg/injection, schedule: Q07DX002 (ip), vehicle: other
  T/C: 67 % of control
dose: 125.0 mg/kg/injection, schedule: Q07DX002 (ip), vehicle: other
  T/C: 101 % of control
dose: 250.0 mg/kg/injection, schedule: Q07DX002 (ip), vehicle: other
  T/C: 152 % of control
dose: 500.0 mg/kg/injection, schedule: Q07DX002 (ip), vehicle: other
  T/C: 58 % of control
dose: 1000.0 mg/kg/injection, schedule: Q07DX002 (ip), vehicle: other
  T/C: 87 % of control
